The values below come from patent publication US7247734B2 (Vernalis (Cambridge) Limited, priority 2001, dated 2007).

This experiment has as its target T1, yeast HSP90 (Saccharomyces cerevisiae, UniProt P02829).
T1 construct: made in house; host or cells: E. coli
Description: Malachite green HSP90 ATPase assay. In kind it is biochemical. The settings on record: 1 mM ATP, ±SD if n=3–5. In a few lines: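 E. coli-expressed yeast HSP90 ATPase activity measured as released inorganic phosphate by malachite green–molybdate colour (610 nm), with sodium citrate added to suppress non-enzymatic ATP hydrolysis. Assay buffer 100 mM Tris-HCl pH 7.4, 20 mM KCl, 6 mM MgCl2; compounds screened at 40 μM final.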

Like-named read-outs stand apart in the source and are kept apart here.

T1 sequence (P02829 whole entry, looked up): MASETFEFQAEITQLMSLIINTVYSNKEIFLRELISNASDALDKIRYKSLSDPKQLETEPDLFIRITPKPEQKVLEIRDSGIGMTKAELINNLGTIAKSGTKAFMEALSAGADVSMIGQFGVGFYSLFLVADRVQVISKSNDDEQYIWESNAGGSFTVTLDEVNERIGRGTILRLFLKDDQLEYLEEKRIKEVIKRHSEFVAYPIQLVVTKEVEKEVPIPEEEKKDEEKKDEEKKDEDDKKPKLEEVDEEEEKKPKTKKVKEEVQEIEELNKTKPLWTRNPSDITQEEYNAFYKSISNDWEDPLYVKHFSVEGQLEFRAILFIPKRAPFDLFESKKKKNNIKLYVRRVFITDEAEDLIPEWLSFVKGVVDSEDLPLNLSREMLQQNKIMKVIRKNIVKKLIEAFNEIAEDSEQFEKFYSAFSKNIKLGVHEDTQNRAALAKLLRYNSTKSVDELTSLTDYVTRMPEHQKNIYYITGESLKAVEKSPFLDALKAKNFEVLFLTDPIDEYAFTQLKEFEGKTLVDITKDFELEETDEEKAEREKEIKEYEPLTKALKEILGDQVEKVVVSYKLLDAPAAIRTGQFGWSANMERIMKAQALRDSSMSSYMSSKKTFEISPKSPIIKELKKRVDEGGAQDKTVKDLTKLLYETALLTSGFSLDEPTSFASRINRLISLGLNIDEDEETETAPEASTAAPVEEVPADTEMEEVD

The IC50 is the concentration that gives 50% inhibition. Consider `Cc1[nH]nc(-c2ccc(O)cc2O)c1-c1ccc2c(c1)OCCO2` [CCT018157], for which the IC50 (malachite green assay, read-out: HSP90 ATPase inhibition IC50) is 60.5 ± 8 µM.

`CCc1cc(-c2n[nH]c(C)c2-c2ccc3c(c2)OCCO3)c(O)cc1O` [CCT018159, 4-[4-(2,3-Dihydro-benzo[1,4]dioxin-6-yl)-5-methyl-1H-pyrazol-3-yl]-6-ethyl-benzene-1,3-diol]: where the note is “HSP90 ATPase inhibition IC50, malachite green assay”, half-maximal inhibition (IC50) was put at 9.2 ± 0.65 µM.
